Assay results from the supplement of paper PMC10307832.

Columns and labels:
Assay in all cases: relative viability (nuclei count vs DMSO), 5 days (fraction); higher = more cells survive
NCI-H1650 = system: NCI-H1650
In short: (§1)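 The day after seeding in 1536-well plates, lung cancer cell lines were treated by pin tool with a single drug, or with a fixed anchor-drug dose together with five library-drug doses (not always all listed) in √10 steps. After 5 days, a combined fix-and-stain solution (final 0.05% Triton X-100, 1% formaldehyde, 1 ug/ml Hoechst) was added. Nuclei counted on 4× images gave relative viability as treated counts over vehicle counts, reported as the median of duplicate plates.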

LOU-NH91 = system: LOU-NH91
In short: as §1

NCI-H2009 = system: NCI-H2009
In short: as §1

HCC-44 = system: HCC-44
In short: as §1

NCI-H838 = system: NCI-H838
In short: as §1

NCI-H520 = system: NCI-H520
In short: as §1

NCI-H727 = system: NCI-H727
In short: as §1

NCI-H1755 = system: NCI-H1755
In short: as §1

HCC-78 = system: HCC-78
In short: as §1

ABC-1 = system: ABC-1
In short: as §1

NCI-H358 = system: NCI-H358
In short: as §1

LK-2 = system: LK-2
In short: as §1

NCI-H2347 = system: NCI-H2347
In short: as §1

HCC-366 = system: HCC-366
In short: as §1

NCI-H2405 = system: NCI-H2405
In short: as §1

NCI-H1355 = system: NCI-H1355
In short: as §1

UMC-11 = system: UMC-11
In short: as §1

NCI-H1734 = system: NCI-H1734
In short: as §1

NCI-H1666 = system: NCI-H1666
In short: as §1

BEN = system: BEN
In short: as §1

SW 1573 = system: SW 1573
In short: as §1

201T = system: 201T
In short: as §1

SMILES: CCCCCCCCCCCC1=C(O)C(=O)C=C(O)C1=O [Embelin] + Nc1ncn([C@H]2C[C@H](O)[C@@H](CO)O2)c(=O)n1 [Decitabine] (partner 2 µM)
- relative viability (NCI-H1650; first compound 0.08 µM): 0.354
- relative viability (NCI-H1650; first compound 0.8 µM): 0.362
- relative viability (NCI-H1650; first compound 2.53 µM): 0.457
- relative viability (NCI-H1650; first compound 8 µM): 0.384
- relative viability (LOU-NH91; first compound 0.08 µM): 0.825
- relative viability (LOU-NH91; first compound 0.8 µM): 0.893
- relative viability (LOU-NH91; first compound 2.53 µM): 0.852
- relative viability (LOU-NH91; first compound 8 µM): 0.801
- relative viability (NCI-H2009; first compound 0.08 µM): 0.407
- relative viability (NCI-H2009; first compound 0.8 µM): 0.412
- relative viability (NCI-H2009; first compound 2.53 µM): 0.369
- relative viability (NCI-H2009; first compound 8 µM): 0.351
- relative viability (HCC-44; first compound 0.08 µM): 0.981
- relative viability (HCC-44; first compound 0.8 µM): 0.953
- relative viability (HCC-44; first compound 2.53 µM): 0.986
- relative viability (HCC-44; first compound 8 µM): 0.944
- relative viability (NCI-H838; first compound 0.08 µM): 0.478
- relative viability (NCI-H838; first compound 0.8 µM): 0.485
- relative viability (NCI-H838; first compound 2.53 µM): 0.502
- relative viability (NCI-H838; first compound 8 µM): 0.321
- relative viability (NCI-H520; first compound 0.08 µM): 0.478
- relative viability (NCI-H520; first compound 0.8 µM): 0.558
- relative viability (NCI-H520; first compound 2.53 µM): 0.552
- relative viability (NCI-H520; first compound 8 µM): 0.441
- relative viability (NCI-H727; first compound 0.08 µM): 1.02
- relative viability (NCI-H727; first compound 0.8 µM): 0.96
- relative viability (NCI-H727; first compound 2.53 µM): 1.14
- relative viability (NCI-H727; first compound 8 µM): 0.916
- relative viability (NCI-H1755; first compound 0.08 µM): 0.767
- relative viability (NCI-H1755; first compound 0.8 µM): 0.72
- relative viability (NCI-H1755; first compound 2.53 µM): 0.781
- relative viability (NCI-H1755; first compound 8 µM): 0.753
- relative viability (HCC-78; first compound 0.08 µM): 0.739
- relative viability (HCC-78; first compound 0.8 µM): 0.751
- relative viability (HCC-78; first compound 2.53 µM): 0.71
- relative viability (HCC-78; first compound 8 µM): 0.675
- relative viability (ABC-1; first compound 0.08 µM): 1.02
- relative viability (ABC-1; first compound 0.8 µM): 1.11
- relative viability (ABC-1; first compound 2.53 µM): 1.04
- relative viability (ABC-1; first compound 8 µM): 1.12
- relative viability (NCI-H358; first compound 0.08 µM): 0.2
- relative viability (NCI-H358; first compound 0.8 µM): 0.233
- relative viability (NCI-H358; first compound 2.53 µM): 0.23
- relative viability (NCI-H358; first compound 8 µM): 0.221
- relative viability (LK-2; first compound 0.08 µM): 0.287
- relative viability (LK-2; first compound 0.8 µM): 0.348
- relative viability (LK-2; first compound 2.53 µM): 0.406
- relative viability (LK-2; first compound 8 µM): 0.332
- relative viability (NCI-H2347; first compound 0.08 µM): 0.618
- relative viability (NCI-H2347; first compound 0.8 µM): 0.72
- relative viability (NCI-H2347; first compound 2.53 µM): 0.671
- relative viability (NCI-H2347; first compound 8 µM): 0.592
- relative viability (HCC-366; first compound 0.08 µM): 0.341
- relative viability (HCC-366; first compound 0.8 µM): 0.306
- relative viability (HCC-366; first compound 2.53 µM): 0.372
- relative viability (HCC-366; first compound 8 µM): 0.336
- relative viability (NCI-H2405; first compound 0.08 µM): 0.764
- relative viability (NCI-H2405; first compound 0.8 µM): 0.89
- relative viability (NCI-H2405; first compound 2.53 µM): 0.738
- relative viability (NCI-H2405; first compound 8 µM): 0.703
- relative viability (NCI-H1355; first compound 0.08 µM): 0.333
- relative viability (NCI-H1355; first compound 0.8 µM): 0.394
- relative viability (NCI-H1355; first compound 2.53 µM): 0.421
- relative viability (NCI-H1355; first compound 8 µM): 0.358
- relative viability (UMC-11; first compound 0.08 µM): 0.616
- relative viability (UMC-11; first compound 0.8 µM): 0.608
- relative viability (UMC-11; first compound 2.53 µM): 0.631
- relative viability (UMC-11; first compound 8 µM): 0.553
- relative viability (NCI-H1734; first compound 0.08 µM): 0.514
- relative viability (NCI-H1734; first compound 0.8 µM): 0.56
- relative viability (NCI-H1734; first compound 2.53 µM): 0.56
- relative viability (NCI-H1734; first compound 8 µM): 0.516
- relative viability (NCI-H1666; first compound 0.08 µM): 0.712
- relative viability (NCI-H1666; first compound 0.8 µM): 0.812
- relative viability (NCI-H1666; first compound 2.53 µM): 0.78
- relative viability (NCI-H1666; first compound 8 µM): 0.757
- relative viability (BEN; first compound 0.08 µM): 0.717
- relative viability (BEN; first compound 0.8 µM): 0.813
- relative viability (BEN; first compound 2.53 µM): 0.812
- relative viability (BEN; first compound 8 µM): 0.559
- relative viability (SW 1573; first compound 0.08 µM): 0.422
- relative viability (SW 1573; first compound 0.8 µM): 0.674
- relative viability (SW 1573; first compound 2.53 µM): 0.654
- relative viability (SW 1573; first compound 8 µM): 0.456
- relative viability (201T; first compound 0.08 µM): 0.82
- relative viability (201T; first compound 0.8 µM): 0.884
- relative viability (201T; first compound 2.53 µM): 0.853
- relative viability (201T; first compound 8 µM): 0.831
